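96-well plates; 48 h exposure; 5 concentrations. Endpoints by linear interpolation between flanking doses. Not reached: highest tested concentration assigned. GI50: concentration for 50% inhibition of growth.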 Activity calls are given as the source filed them. No stated cut-off is given here; in the data, active = GI50 up to about 1.1 µM and inactive = higher.
Legend:
Test in all cases: DTP human tumour cell line panel, 48 h
TK-10 = test system: TK-10
HOP-62 = test system: HOP-62
SF-268 = test system: SF-268
SW-620 = test system: SW-620
COLO 205 = test system: COLO 205
SK-MEL-28 = test system: SK-MEL-28
SF-295 = test system: SF-295
NCI-H23 = test system: NCI-H23
HCC 2998 = test system: HCC 2998
KM12 = test system: KM12
SN12C = test system: SN12C
MDA-MB-435 = test system: MDA-MB-435
M14 = test system: M14
UO-31 = test system: UO-31
A549 = test system: A549
SK-OV-3 = test system: SK-OV-3
MCF7 = test system: MCF7
HCT-116 = test system: HCT-116
UACC-257 = test system: UACC-257
SNB-19 = test system: SNB-19

| SMILES | GI50 (TK-10) | GI50 (HOP-62) | GI50 (SF-268) | GI50 (SW-620) | GI50 (COLO 205) | GI50 (SK-MEL-28) | GI50 (SF-295) | GI50 (NCI-H23) | GI50 (HCC 2998) | GI50 (KM12) | GI50 (SN12C) | GI50 (MDA-MB-435) | GI50 (M14) | GI50 (UO-31) | GI50 (A549) | GI50 (SK-OV-3) | GI50 (MCF7) | GI50 (HCT-116) | GI50 (UACC-257) | GI50 (SNB-19) |
| --- | --- | --- | --- | --- | --- | --- | --- | --- | --- | --- | --- | --- | --- | --- | --- | --- | --- | --- | --- | --- |
| CC(=O)Oc1ccc(/C=C/C(=O)O[C@H]2CCCC[C@@H]2OC(=O)/C=C/c2ccc(OC(C)=O)c(OC(C)=O)c2)cc1OC(C)=O | 6.93 µM (inactive) | 7.38 µM (inactive) | 8.17 µM (inactive) | 2.24 µM (inactive) | 16.7 µM (inactive) | 12.8 µM (inactive) | 4.37 µM (inactive) | 8.75 µM (inactive) | 13.8 µM (inactive) | 8.75 µM (inactive) | 9.23 µM (inactive) | 10.4 µM (inactive) | 7.14 µM (inactive) | 3.54 µM (inactive) | 6.87 µM (inactive) | 11.8 µM (inactive) | 13.8 µM (inactive) | 4.58 µM (inactive) | 11.8 µM (inactive) | 4.71 µM (inactive) |
| COc1cccc2c1C(=O)C=CC2=O | 14.2 µM (inactive) | 19.9 µM (inactive) | 6.73 µM (inactive) | 6.18 µM (inactive) | 7.06 µM (inactive) | 17.5 µM (inactive) | 15.6 µM (inactive) | 14.8 µM (inactive) | 15.3 µM (inactive) | 9.82 µM (inactive) | 14 µM (inactive) | 10.1 µM (inactive) | 8.49 µM (inactive) | 15.4 µM (inactive) | 20 µM (inactive) | 21.8 µM (inactive) | 1.93 µM (inactive) | 3.44 µM (inactive) | 15.5 µM (inactive) | 15.5 µM (inactive) |
| S=c1nc(N/N=C/c2cccs2)c2cn[nH]c2[nH]1 | 17.9 µM (inactive) | 23.2 µM (inactive) | 38 µM (inactive) | 37.1 µM (inactive) | 6.87 µM (inactive) | 46.7 µM (inactive) | 12.4 µM (inactive) | 21.2 µM (inactive) | 10.1 µM (inactive) | 6.43 µM (inactive) | 32.3 µM (inactive) | 16.3 µM (inactive) | 33.4 µM (inactive) | > 100 µM (inactive) | 0.238 µM (active) | > 100 µM (inactive) | 4.23 µM (inactive) | 16.2 µM (inactive) | 35.7 µM (inactive) | 58.2 µM (inactive) |
| Clc1ccc(/C(=C\c2ccccc2)Cn2ccnc2)cc1 | 35.6 µM (inactive) | 15.9 µM (inactive) | 4.25 µM (inactive) | 29.5 µM (inactive) | 15.1 µM (inactive) | 13.3 µM (inactive) | 17.9 µM (inactive) | 28.9 µM (inactive) | 21.3 µM (inactive) | 4.93 µM (inactive) | 27.4 µM (inactive) | 11.2 µM (inactive) | 19.6 µM (inactive) | 5.28 µM (inactive) | 18 µM (inactive) | 16.5 µM (inactive) | 16.1 µM (inactive) | 14.8 µM (inactive) | 19.3 µM (inactive) | 21 µM (inactive) |
| COc1cc2cc(C(=O)N3CC(COS(C)(=O)=O)c4c3cc(N)c3ccccc43)[nH]c2c(OC)c1OC (stereo not given) | < 0.01 µM (active) | 0.0191 µM (active) | 0.0188 µM (active) | 0.0148 µM (active) | 0.0244 µM (active) | 0.0266 µM (active) | 0.0195 µM (active) | < 0.0179 µM (active) | 0.0148 µM (active) | 0.0194 µM (active) | 0.0221 µM (active) | 0.0152 µM (active) | 0.0169 µM (active) | 0.0141 µM (active) | 0.0146 µM (active) | 0.0444 µM (active) | < 0.0122 µM (active) | 0.0108 µM (active) | 0.0209 µM (active) | < 0.0491 µM (active) |
| CN(C)C(=S)SN(C)C(=O)Nc1ccccc1 | > 96.2 µM (inactive) | > 65.9 µM (inactive) | 38.4 µM (inactive) | 7.28 µM (inactive) | 4.48 µM (inactive) | 12.2 µM (inactive) | 49.3 µM (inactive) | 7.4 µM (inactive) | 17.3 µM (inactive) | 12.1 µM (inactive) | 41.2 µM (inactive) | 19.7 µM (inactive) | 7.46 µM (inactive) | 57.7 µM (inactive) | 23.4 µM (inactive) | > 87.7 µM (inactive) | 2.67 µM (inactive) | 8.91 µM (inactive) | 46.1 µM (inactive) | 80.2 µM (inactive) |
| CC(C)(C)NCCC(O)c1cc(C(F)(F)F)nc2c(C(F)(F)F)cccc12 (stereo not given) | 12.2 µM (inactive) | 4.67 µM (inactive) | 11.4 µM (inactive) | 18 µM (inactive) | 10.7 µM (inactive) | 15.7 µM (inactive) | 8.75 µM (inactive) | 4.26 µM (inactive) | 2.43 µM (inactive) | 2.77 µM (inactive) | 7.71 µM (inactive) | 12.9 µM (inactive) | 7.83 µM (inactive) | 0.502 µM (active) | 4.38 µM (inactive) | 16.2 µM (inactive) | 12.6 µM (inactive) | 5.07 µM (inactive) | 13.5 µM (inactive) | 13.6 µM (inactive) |
| COc1ccc2c(c1)N=C1CSC(c3c(Cl)cccc3[N+](=O)[O-])N1C2 (stereo not given) | 48.4 µM (inactive) | > 100 µM (inactive) | 63.4 µM (inactive) | 36.6 µM (inactive) | 24.9 µM (inactive) | 20.5 µM (inactive) | 40.6 µM (inactive) | 45.3 µM (inactive) | 21.4 µM (inactive) | 33.5 µM (inactive) | 53.7 µM (inactive) | 27.5 µM (inactive) | 51.6 µM (inactive) | 30.8 µM (inactive) | 42.8 µM (inactive) | > 100 µM (inactive) | 30.1 µM (inactive) | 35.5 µM (inactive) | 27 µM (inactive) | > 100 µM (inactive) |
| COc1cc(C)cc2c1C(=O)C(Br)=CC2=O | 2.49 µM (inactive) | 17.8 µM (inactive) | 16.4 µM (inactive) | 1.89 µM (inactive) | 1.72 µM (inactive) | 17.4 µM (inactive) | 16.2 µM (inactive) | 15.5 µM (inactive) | 19.5 µM (inactive) | 15 µM (inactive) | 15.7 µM (inactive) | 2.29 µM (inactive) | 3.3 µM (inactive) | 5.38 µM (inactive) | 21.2 µM (inactive) | 19.6 µM (inactive) | 4.48 µM (inactive) | 6.7 µM (inactive) | 13.7 µM (inactive) | 16.3 µM (inactive) |
| O=c1[nH]c2cc([N+](=O)[O-])c(Nc3c4ccccc4nc4ccccc34)c([N+](=O)[O-])c2[nH]1 | 1.92 µM (inactive) | 2.67 µM (inactive) | 3.15 µM (inactive) | 2.31 µM (inactive) | 2.1 µM (inactive) | 3.27 µM (inactive) | 2.65 µM (inactive) | 3.49 µM (inactive) | 1.73 µM (inactive) | 2.26 µM (inactive) | 2.17 µM (inactive) | 2.77 µM (inactive) | 2.12 µM (inactive) | 2.09 µM (inactive) | 2.69 µM (inactive) | 4.04 µM (inactive) | 2.59 µM (inactive) | 0.82 µM (active) | 4.03 µM (inactive) | 5.02 µM (inactive) |

Source: ChEMBL document CHEMBL1201862, “PubChem BioAssay data set” (2004)
